Measurements published in PubChem BioAssay AID1259411 (Chemical Carcinogenesis Research Information System (CCRIS), 2018).
The source made the active and inactive calls. How the calls were made is not given here.

Test system: rodent carcinogenicity bioassays, tumor incidence
Assay: CCRIS carcinogenicity studies
Details: Dose: 0, Dose: 0
How it was run: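 NCI-built, expert-reviewed records of carcinogenicity and related test outcomes (mutagenicity, tumor promotion/inhibition) compiled from published and report sources, historical span 1985-2011, not updated.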

SMILES: CN(CCCC(=O)c1cccnc1)N=O
- carcinogen call (Species: HAMSTER, Strain/Sex: SYRIAN/FEMALE, Route: INTRATRACHEAL, 0.05, 5, 50 MG/KG ONCE ADMINISTERED TO MOTHERS ON DAY 15 OF GESTATION (STUDY DURATION: 59 WK), 0.05, 5, 50 MG/KG ONCE ADMINISTERED TO MOTHERS ON DAY 15 OF GESTATION (STUDY DURATION: 59 WK), Tumor Site: Type of Lesion: NASAL CAVITY: ADENOCARCINOMA, ADRENAL GLAND: TUMOR, PANCREAS: ADENOMA, Tumor Site: Type of Lesion: NASAL CAVITY: ADENOCARCINOMA, ADRENAL GLAND: TUMOR, PANCREAS: ADENOMA): active; positive
- carcinogen call (Species: HAMSTER, Strain/Sex: SYRIAN/FEMALE, Route: SUBCUTANEOUS, 1, 5, 10, 20 MG/KG ONCE ADMINISTERED TO MOTHERS ON DAY 15 OF GESTATION (STUDY DURATION: 59 WK), 1, 5, 10, 20 MG/KG ONCE ADMINISTERED TO MOTHERS ON DAY 15 OF GESTATION (STUDY DURATION: 59 WK), Tumor Site: Type of Lesion: NASAL CAVITY: ADENOCARCINOMA, ADRENAL GLAND: TUMOR): active; positive
- carcinogen call (Species: HAMSTER, Strain/Sex: SYRIAN/FEMALE, Route: TRANSPLACENTAL, 50 MG/KG IN DISTILLED WATER ADMINISTERED INTRATRACHEALLY TO MOTHERS ON DAY 15 OF GESTATION (STUDY DURATION: 48 WK), Tumor Site: Type of Lesion: ADRENAL GLAND: TUMOR, COLON: TUMOR, LYMPHOID TISSUE: LYMPHOMA, Tumor Site: Type of Lesion: ADRENAL GLAND: TUMOR, COLON: TUMOR, LYMPHOID TISSUE: LYMPHOMA): active; positive
- carcinogen call (Species: HAMSTER, Strain/Sex: SYRIAN/MALE, Route: INTRATRACHEAL, 0.05, 5, 50 MG/KG ONCE ADMINISTERED TO MOTHERS ON DAY 15 OF GESTATION (STUDY DURATION: 59 WK), 0.05, 5, 50 MG/KG ONCE ADMINISTERED TO MOTHERS ON DAY 15 OF GESTATION (STUDY DURATION: 59 WK), Tumor Site: Type of Lesion: NASAL CAVITY: ADENOCARCINOMA, ADRENAL GLAND: TUMOR): active; positive
- carcinogen call (Species: HAMSTER, Strain/Sex: SYRIAN/MALE, Route: SUBCUTANEOUS, 1, 5, 10, 20 MG/KG ONCE ADMINISTERED TO MOTHERS ON DAY 15 OF GESTATION (STUDY DURATION: 59 WK), 1, 5, 10, 20 MG/KG ONCE ADMINISTERED TO MOTHERS ON DAY 15 OF GESTATION (STUDY DURATION: 59 WK), Tumor Site: Type of Lesion: NASAL CAVITY: ADENOCARCINOMA, ADRENAL GLAND: TUMOR): active; positive
- carcinogen call (Species: HAMSTER, Strain/Sex: SYRIAN/MALE, Route: TRANSPLACENTAL, 50 MG/KG IN DISTILLED WATER ADMINISTERED INTRATRACHEALLY TO MOTHERS ON DAY 15 OF GESTATION (STUDY DURATION: 48 WK), Tumor Site: Type of Lesion: NASAL CAVITY: TUMOR): active; positive
- carcinogen call (Species: MOUSE, Strain/Sex: C3B6F1/FEMALE, Route: TRANSPLACENTAL, 100 MG/KG (0.5 MMOL) IN 0.9% STERILE SALINE ADMINISTERED INTRAPERITONEALLY ON DAYS 14, 16 AND 18 OF GESTATION (STUDY): inactive; negative
- carcinogen call (Species: MOUSE, Strain/Sex: C3B6F1/MALE, Route: TRANSPLACENTAL, 100 MG/KG (0.5 MMOL) IN 0.9% STERILE SALINE ADMINISTERED INTRAPERITONEALLY ON DAYS 14, 16 AND 18 OF GESTATION (STUDY, Tumor Site: Type of Lesion: LIVER: HEPATOCELLULAR ADENOMA OR CARCINOMA): active; positive
- carcinogen call (Species: MOUSE, Strain/Sex: C3H/HE/FEMALE, Route: INTRAPERITONEAL, 100 MG/KG (0.5 MMOL) IN 0.9% STERILE SALINE ONCE ON DAYS 14, 16 AND 18 OF PREGNANCY (STUDY DURATION: 24 WK), Tumor Site: Type of Lesion: LUNG: TUMOR): active; positive
- carcinogen call (Species: MOUSE, Strain/Sex: STRAIN-A/FEMALE, Route: GAVAGE, 1, 2, 3 UMOL IN 0.1 ML COTTONSEED OIL 1/WK FOR 8 WK (STUDY DURATION: 26 WK), 1, 2, 3 UMOL IN 0.1 ML COTTONSEED OIL 1/WK FOR 8 WK (STUDY DURATION: 26 WK), Tumor Site: Type of Lesion: LUNG: ADENOMA): active; positive
- carcinogen call (Species: MOUSE, Strain/Sex: STRAIN-A/FEMALE, Route: INTRAPERITONEAL, 1, 2, 3 UMOL IN 0.1 ML COTTONSEED OIL 1/WK FOR 8 WK (STUDY DURATION: 26 WK), 1, 2, 3 UMOL IN 0.1 ML COTTONSEED OIL 1/WK FOR 8 WK (STUDY DURATION: 26 WK), Tumor Site: Type of Lesion: LUNG: ADENOMA): active; positive
- carcinogen call (Species: MOUSE, Strain/Sex: STRAIN-A/FEMALE, Route: INTRAPERITONEAL, 5, 20 UMOL TOTAL DOSE ADMINISTERED IN SUBDOSES 3/WK FOR 7 WK (STUDY DURATION: 37 WK), 5, 20 UMOL TOTAL DOSE ADMINISTERED IN SUBDOSES 3/WK FOR 7 WK (STUDY DURATION: 37 WK), Tumor Site: Type of Lesion: LUNG: TUMOR): active; positive
- carcinogen call (Species: MOUSE, Strain/Sex: STRAIN-A/FEMALE, Route: INTRAPERITONEAL, 20 UMOL MOUSE (TOTAL DOSE) ADMINISTERED IN 0.1 ML SALINE 3/WK (TOTAL 20 INJECTIONS) (STUDY DURATION: 37 WK), Tumor Site: Type of Lesion: LUNG: ADENOCARCINOMA, ADENOMA): active; positive
- carcinogen call (Species: MOUSE, Strain/Sex: STRAIN-A/FEMALE, Route: TRANSPLACENTAL, 100 MG/KG (0.5 MMOL) IN 0.9% STERILE SALINE ADMINISTERED INTRAPERITONEALLY ON DAYS 14, 16 AND 18 OF GESTATION (STUDY, Tumor Site: Type of Lesion: LUNG: TUMOR): active; positive
- carcinogen call (Species: MOUSE, Strain/Sex: STRAIN-A/MALE, Route: TRANSPLACENTAL, 100 MG/KG (0.5 MMOL) IN 0.9% STERILE SALINE ADMINISTERED INTRAPERITONEALLY ON DAYS 14, 16 AND 18 OF GESTATION (STUDY): inactive; negative
- carcinogen call (Species: MOUSE, Strain/Sex: SWISS/FEMALE, Route: INTRAPERITONEAL, 50 MG/KG IN STERILE SALINE ADMINISTERED ON POSTNATAL D 1, 3, 5, 7 AND 10 (STUDY DURATION: 15 MO), Tumor Site: Type of Lesion: LIVER: HEPATOCELLULAR ADENOMA OR CARCINOMA, LUNG: TUMOR): active; positive
- carcinogen call (Species: MOUSE, Strain/Sex: SWISS/FEMALE, Route: TRANSPLACENTAL, 100 MG/KG (0.5 MMOL) IN 0.9% STERILE SALINE ADMINISTERED INTRAPERITONEALLY ON DAYS 15, 17 AND 19 OF GESTATION (STUDY): inactive; negative
- carcinogen call (Species: MOUSE, Strain/Sex: SWISS/MALE, Route: INTRAPERITONEAL, 50 MG/KG IN STERILE SALINE ADMINISTERED ON POSTNATAL D 1, 3, 5, 7 AND 10 (STUDY DURATION: 15 MO), Tumor Site: Type of Lesion: LIVER: HEPATOCELLULAR ADENOMA OR CARCINOMA, LUNG: TUMOR): active; positive
- carcinogen call (Species: MOUSE, Strain/Sex: SWISS/MALE, Route: TRANSPLACENTAL, 100 MG/KG (0.5 MMOL) IN 0.9% STERILE SALINE ADMINISTERED INTRAPERITONEALLY ON DAYS 15, 17 AND 19 OF GESTATION (STUDY): inactive; negative
- carcinogen call (Species: RAT, Strain/Sex: F344/FEMALE, Route: GAVAGE, 11 MG/WK FOR A TOTAL DOSE OF 1.3 MMOL (STUDY DYRATION: 50 WK), Tumor Site: Type of Lesion: LIVER: TUMOR, LUNG: TUMOR, NASAL MUCOSA: TUMOR, Tumor Site: Type of Lesion: LIVER: TUMOR, LUNG: TUMOR, NASAL MUCOSA: TUMOR): active; positive
- carcinogen call (Species: RAT, Strain/Sex: F344/FEMALE, Route: INTRAVESICULAR, 5.5 MG IN 0.2 ML ETHANOL: DEIONIZED WATER (1:3) 2/WK FOR 30 WK (TOTAL DOSE 1.5 MMOL) (STUDY DURATION: LIFESPAN), Tumor Site: Type of Lesion: LUNG: TUMOR, LIVER: TUMOR): active; positive
- carcinogen call (Species: RAT, Strain/Sex: F344/FEMALE, Route: SUBCUTANEOUS, 1, 3, 9 MMOL/KG BW (TOTAL DOSE) WITH SUBDOSES GIVEN 3/WK FOR 20 WK WITH A 2 WK INTERRUPTION AFTER 7 WK (STUDY DURATIO, 1, 3, 9 MMOL/KG BW (TOTAL DOSE) WITH SUBDOSES GIVEN 3/WK FOR 20 WK WITH A 2 WK INTERRUPTION AFTER 7 WK (STUDY DURATIO, Tumor Site: Type of Lesion: NASAL CAVITY: TUMORS, LUNG: TUMORS, LIVER: TUMORS, Tumor Site: Type of Lesion: NASAL CAVITY: TUMORS, LUNG: TUMORS, LIVER: TUMORS): active; positive
- carcinogen call (Species: RAT, Strain/Sex: F344/MALE, Route: MUCOUS MEMBRANE, 0.3 ML OF A 15 MMOL WATER SOLUTION 1/D 3 D/WK FOR 1 WK THEN 1/D 5 D/WK FOR WK 2-4 THEN 2/D 5 D/WK FOR WK 5-61 (STUDY, Tumor Site: Type of Lesion: LUNG: ADENOSQUAMOUS CARCINOMA, ADENOCARCINOMA, ADENOMA, NASAL CAVITY: CARCINOMA, PAPILLOMA, ADENOMA, ORAL CAVITY: PAPILL, Tumor Site: Type of Lesion: LUNG: ADENOSQUAMOUS CARCINOMA, ADENOCARCINOMA, ADENOMA, NASAL CAVITY: CARCINOMA, PAPILLOMA, ADENOMA, ORAL CAVITY: PAPILL): active; positive
- carcinogen call (Species: RAT, Strain/Sex: F344/MALE, Route: ORAL, 0.5, 1, 5 PPM IN DRINKING WATER FOR DURATION OF STUDY (TOTAL DOSE: 0; 0.073; 0.17; 0.68 MMOL/KG) (STUDY DURATION: 128, 0.5, 1, 5 PPM IN DRINKING WATER FOR DURATION OF STUDY (TOTAL DOSE: 0; 0.073; 0.17; 0.68 MMOL/KG) (STUDY DURATION: 128, Tumor Site: Type of Lesion: NASAL CAVITY: TUMOR, LIVER: ADENOMA, HEPATOMA, LUNG: ADENOMA, ADENOCARCINOMA, ADENOSQUAMOUS CARCINOMA, SQUAMOUS CELL CAR, Tumor Site: Type of Lesion: NASAL CAVITY: TUMOR, LIVER: ADENOMA, HEPATOMA, LUNG: ADENOMA, ADENOCARCINOMA, ADENOSQUAMOUS CARCINOMA, SQUAMOUS CELL CAR): active; positive
- carcinogen call (Species: RAT, Strain/Sex: F344/MALE, Route: SUBCUTANEOUS, 1, 3, 9 MMOL/KG BW (TOTAL DOSE) WITH SUBDOSES GIVEN 3/WK FOR 20 WK WITH A 2 WK INTERRUPTION AFTER 7 WK (STUDY DURATIO, 1, 3, 9 MMOL/KG BW (TOTAL DOSE) WITH SUBDOSES GIVEN 3/WK FOR 20 WK WITH A 2 WK INTERRUPTION AFTER 7 WK (STUDY DURATIO, Tumor Site: Type of Lesion: NASAL CAVITY: TUMORS, LUNG: TUMORS, LIVER: TUMORS, Tumor Site: Type of Lesion: NASAL CAVITY: TUMORS, LUNG: TUMORS, LIVER: TUMORS): active; positive
